Data as given in US9808419B2, “Medicinal treatment of dermal infectious disorders with norketotifen” (priority 2012, dated 2017).
Read-outs that look alike come from different tables or passages of the source. Marks after values point to notes of the source that are not given here.

Key:
mice = settings: for Sedated animals: mice, 60 min before physostigmine
Protocol: Mice administered a sedating drug prior to the physostigmine injection are protected from the stress and survive. In the present study, test compounds were given orally 60 minutes prior to physostigmine injection. The number of surviving (sedated) mice was counted 30 minutes after injection of the physostigmine dose.

histamine wheal response = assay: Histamine-induced wheal (Evans blue) in rats, oral pretreatment; format: in vivo; settings: rat; for Saline wheal area: histamine vehicle injection
Protocol: Male rats (150-200 g) were fasted overnight and twelve hours after dorsal depilation, the animals were orally pretreated with the test compound(s). Four dorsal test areas were marked with permanent ink, carefully avoiding the area closest to the spine. […] Two intradermal injections of the vehicle for the histamine solution were also performed. […] Twenty minutes were allowed for the wheal response to fully develop, whereupon the animals were euthanized and the dorsal skin with the intradermal wheals were deflected. The blue spotted areas were measured in square millimeters and the duplicate wheal areas were averaged. […] The inhibition was calculated in percent difference from said baseline values.

[1] = tested on: human leukocytes (buffy coat); assay: Inhibition of A23187-stimulated histamine release from human leukocytes; format: cell-based
Protocol: In these studies, histamine was the marker compound for inflammatory mediators that are released from mast cells and other pro-inflammatory cells in patients with atopic inflammatory diseases. The inhibition of stimulated histamine release from human leukocytes (buffy coat) by test articles was studied. Leukocytes were obtained from healthy volunteers and histamine release was induced by incubation (20 min/37° C.) with the calcium ionophore A23187 (5 μM) in the presence or absence of a test article. Histamine was analyzed by enzyme-immune assays, using commercially available kits and a microplate reader (MRX, Dynatech). The test articles were evaluated, in duplicate, at five concentrations.

[2] = tested on: histamine-induced pruritus; assay: Histamine-induced pruritus in mice, oral administration; format: in vivo
Protocol: Antipruritic effects were tested in vivo in CD-1 female mice aged 10-12 weeks. The hair was clipped over the rostral part of the back at the interscapular level of the mice one day before dosing. Before testing, the mice were placed in individual clear plastic cages for at least one hour for acclimation. After fasting for 1.5 hours, the animals were dosed orally with the test article, dissolved in a vehicle consisting of 1% methylcellulose/water, 10 mL/kg body-weight. Sixty minutes after oral dosing, an intradermal injection of histamine (300 nmol in 20 μl phosphate buffered saline (PBS), pH 7.4) was administered into the clipped area. Immediately after the histamine injection, the bouts of scratches were counted for 40 minutes. Scratching induced by the histamine vehicle PBS served as control.
Norketotifen was tested in escalating doses. In addition, a supramaximal dose of 100 mg/kg of norketotifen was tested. The reference compounds JNJ7777120, desloratadine and oclacitinib were dosed orally at 20 mg/kg. The vehicle for the reference compound JNJ7777120 was 20% hydroxypropyl-β-cyclodextrin in water. […]. The numbers of pruritic bouts for Norketotifen, DES and OCLA are expressed in percent of the same Vehicle (100% corresponds to 92 pruritic bouts). […] Scratches induced by the histamine-free vehicle PBS (not shown in Table 5) served as control (6±3 bouts of scratching; N=8)
This test used histamine to induce pruritus. […] The histamine inhibitors are “inverse agonists” at both receptor types.

[3] = Acute toxicity in rats, Up-and-Down Procedure; settings: both sexes, Sprague-Dawley, in vivo, rat, hydrogen fumarate salts, read-out: Acute toxicity (estimated LD50)
Protocol: Acute toxicological studies were performed in rats (Sprague-Dawley; M and F; 200-250 grams). The animal-sparing Up-and-Down Procedure, recommended by FDA and OECD, was used. Both oral and intravenous toxicity tests were performed.
Both compounds were administered as hydrogen fumarate salts.

[4] = tested on: croton oil inflammatory response; assay: Modified croton oil ear inflammation in mice, topical cream; format: in vivo; settings: cream containing 1.0 percent (w/w)
Protocol: In order to investigate the effects of topical administration of the test compounds in dermal inflammation, a modified croton oil model was used. […] The cream was then removed and a solution of 1% croton oil in 20 μl acetone was applied to both ears. […] Cream was wiped from the ears and ears were removed and weighed. […] All results represent mean ear weights (±S.E.M.) from 8 ears.

[5] = tested on: histamine-induced pruritus; assay: Histamine-induced pruritus in mice, topical cream; format: in vivo; settings: single topical application of 1.0 percent cream
Protocol: Antipruritic effects were tested in vivo in CD-1 female mice aged 10-12 weeks, according to methods known in the art. The hair was clipped over the rostral part of the back at the interscapular level of the mice one day before dosing. Before testing, the mice were placed in individual clear plastic cages for at least one hour for acclimation. […] Lanolin was weighed and liquified by submerging the vessel containing lanolin in hot water. While the lanolin was liquid, it was rapidly nixed (by vortexing) with the 2.5% norketotifen solution in ethanol, resulting in a 1.0 percent solution. […] A cream containing 60% lanolin/40% ethanol served as control.

Candida albicans = assay: Antimicrobial test; format: cell-based
Text: (§1) Several studies have been performed to evaluate possible antimicrobial activities of norketotifen. Shown here are the results from a standard microbiological test, where the results are expressed as MIC (Minimal Inhibitory Concentration) of the test article against selected exemplary dermal bacteria (such as for example Staphylococcus aureus) and dermal fungi (such as for example Malassezia sp) that are commonly found in human with dermal diseases. […] All the MIC-tests shown in Table 10 were performed in duplicates, using 10 concentrations of the test articles. […] The test culture tubes/plates were incubated in temperatures and durations appropriate for each microorganism (S. aureus: 36° C. and 24 hours; M. globosa: 30° C. and 24 hours).

Malassezia pachydermatis = assay: Antimicrobial test; format: cell-based
Text: as §1

Helicobacter pylori = assay: Antimicrobial test; format: cell-based
[6] = Solubility in non-aqueous topical formulation solvents; format: physicochemical
Protocol: The hydrophobic ointment was prepared by dissolving norketotifen in propylene glycol. […] Next, glyceryl stearate, cetyl alcohol, and white petrolatum were added to a suitable container and heated to 65-70° C. This heating step melts the surfactants and the petrolatum. Next, norketotifen solution was slowly added and the composition mixed until the solvent was dispersed. Finally, the composition was cooled with mixing to allow the ointment to thicken. If needed, acidity can be adjusted by adding an acid solution or a base solution to obtain the preferred acidity. If needed, viscosity can be adjusted with a viscosity-modifying agent to obtain the preferred viscosity.

[7] = Formation of norketotifen by hepatic demethylation of ketotifen; settings: human patients, after an oral dose of one milligram ketotifen; calculated
Malassezia globosa = assay: Antimicrobial MIC test; format: cell-based; settings: 30° C. and 24 hours
Text: as §1

Staphylococcus aureus = assay: Antimicrobial MIC test; format: cell-based; settings: MRSA or non-resistant S. aureus; 36° C. and 24 hours
Text: as §1

[8] = oral 20 mg/kg, vehicle 1% methylcellulose/water

In the case of `CCOC(=O)N1CCC(=C2c3ccc(Cl)cc3CCc3cccnc32)CC1` [LORATADINE], the Sedated animals (mice; oral 150 mg/kg) is reported as 1/10.

Work on `O=C1Cc2ccccc2C(=C2CCNCC2)c2ccsc21` (racemic) [Norketotifen] yielded a Saline wheal area (histamine wheal response; oral 1.0 mg/kg) of 22 ± 1 mm^2, a Histamine wheal area (histamine wheal response; oral 10 mg/kg, 60 min before intradermal histamine) of 39 ± 2 mm^2 and a Saline wheal area (histamine wheal response; oral 10 mg/kg) of 22 ± 1 mm^2. The Saline wheal area (histamine wheal response; oral 50 mg/kg) was 12 ± 1 mm^2, the “Potency as inhibitor of histamine release relative to ketotifen” value [1] was “approximately 10 times” and the “Bouts/40 min Mean ± SEM” value ([2]; oral 1 mg/kg) was 84.7 ± 11.6. The “Bouts as % of Vehicle Controls” value ([2]; oral 1 mg/kg, 100% = 92 bouts) was 92%, the “Bouts/40 min Mean ± SEM” value ([2]; oral 3 mg/kg) was 34.1 ± 9.6 and the “Bouts as % of Vehicle Controls” value ([2]; oral 3 mg/kg, 100% = 92 bouts) was 37** %. For the same compound, the “Bouts/40 min Mean ± SEM” value ([2]; oral 10 mg/kg) was 17.8 ± 3.1, the “Bouts as % of Vehicle Controls” value ([2]; oral 10 mg/kg, 100% = 92 bouts) was 19** % and the “Bouts/40 min Mean ± SEM” value ([2]; oral 100 mg/kg) was 8.3 ± 2.8. For the same compound, the “Bouts as % of Vehicle Controls” value ([2]; oral 100 mg/kg, 100% = 92 bouts) was 9*** %, the “Inhibition of histamine-induced pruritus” value ([2]; oral supramaximal dose 100 mg/kg) was “complete inhibition” and the Sedated animals (mice; oral 83 mg/kg) was 3/10. For the same compound, the Sedated animals (mice; oral 100 mg/kg) was 3/10, the Sedated animals (mice; oral 150 mg/kg) was 3/10 and the Sedated animals (mice; oral 180 mg/kg) was 6/10. For the same compound, the “Sedative activity in mice” value (mice; mouse, in vivo) was “expressed sedative activity”, the LD50 ([3]; intravenous) was 10 to 15 mg/kg and the LD50 ([3]; oral) was 1500 to 2000 mg/kg. The “Inhibition of croton oil inflammation” value [4] was “completely inhibited”, the “Reduction of histamine-induced pruritus versus Vehicle Control” value [5] was 58% and the “Antimicrobial activity” value (Candida albicans) was “potent antimicrobial activities”. For the same compound, the “Antimicrobial activity” value (Malassezia pachydermatis) was “potent antimicrobial activities”, the “Antimicrobial activity” value (Helicobacter pylori) was “potent antimicrobial activities” and the Solubility ([6]; formulation G1009, mixture of two polyethylene glycols) was “about 1.0%”. The Solubility ([6]; in propylene glycol) was “about 1.0%” and the “Norketotifen formed in the liver” value [7] was “up to 0.5 mg”.

With `CC(C)(C)c1ccc(C(O)CCCN2CCC(C(O)(c3ccccc3)c3ccccc3)CC2)cc1` (stereo not drawn) [TERFENADINE] the Sedated animals (mice; oral 150 mg/kg) was 0/10.

With `OCCOCCN1CCN(C(c2ccccc2)c2ccc(Cl)cc2)CC1` (stereo not drawn) [HYDROXYZINE] the Sedated animals (mice; oral 100 mg/kg) was 9/10.

With `CNS(=O)(=O)C[C@H]1CC[C@H](N(C)c2ncnc3[nH]ccc23)CC1` [Oclacitinib, reference compound] the “Bouts as % of Vehicle Controls” value ([2]; oral 20 mg/kg, 100% = 92 bouts) was 55* % and the “Bouts/40 min Mean ± SEM” value [2, 8] was 50.9 ± 18.7.

For `Clc1ccc2c(c1)CCc1cccnc1C2=C1CCNCC1` [DESLORATADINE, reference compound], the “Bouts as % of Vehicle Controls” value ([2]; oral 20 mg/kg, 100% = 92 bouts) was 122%, the “Bouts/40 min Mean ± SEM” value [2, 8] was 112.0 ± 14.5 and the Sedated animals (mice; oral 150 mg/kg) was 0/10.

With `O=C(O)/C=C/C(=O)O.O=C1Cc2ccccc2C(=C2CCNCC2)c2ccsc21` [S-norketotifen HF] the “M. globosa MIC” value (Malassezia globosa) was 250 µg/mL and the “S. aureus MIC” value (Staphylococcus aureus) was 500 µg/mL.

In the case of `CN1CCN(C(=O)c2cc3cc(Cl)ccc3[nH]2)CC1` [J&J7777120, reference compound], the “Bouts/40 min Mean ± SEM” value ([2]; oral 20 mg/kg, vehicle 20% hydroxypropyl-β-cyclodextrin) is reported as 63.6 ± 11.7 and the “Bouts as % of Vehicle Controls” value ([2]; oral 20 mg/kg, versus vehicle for JNJ7777120 (112 bouts)) is reported as 57* %.

In the case of `O=C(O)/C=C/C(=O)O.O=C1Cc2ccccc2C(=C2CCNCC2)c2ccsc21` [RS-norketotifen HF], the “M. globosa MIC” value (Malassezia globosa) is reported as 250 µg/mL and the “S. aureus MIC” value (Staphylococcus aureus) is reported as 500 µg/mL.

With `O=C1Cc2ccccc2C(=C2CCNCC2)c2ccsc21` [R-NORKETOTIFEN] the Sedated animals (mice; oral 100 mg/kg, 100 mg/kg) was 3/10 and the Sedated animals (mice; oral 150 mg/kg, 150 mg/kg) was 3/10.

With `O=C(O)/C=C/C(=O)O.O=C1Cc2ccccc2C(=C2CCNCC2)c2ccsc21` [R-norketotifen HF] the “M. globosa MIC” value (Malassezia globosa) was 500 µg/mL and the “S. aureus MIC” value (Staphylococcus aureus) was 1000 µg/mL.

For `O=C1Cc2ccccc2C(=C2CCNCC2)c2ccsc21` [S-NORKETOTIFEN], the Sedated animals (mice; oral 100 mg/kg, 100 mg/kg) was 0/10 and the Sedated animals (mice; oral 150 mg/kg, 150 mg/kg) was 0/10.

With `COc1ccc(CN(CCN(C)C)c2ccccn2)cc1` [PYRILAMINE] the Sedated animals (mice; oral 100 mg/kg) was 8/10.

For `CN1CCC(=C2c3ccccc3CC(=O)c3sccc32)CC1` [Ketotifen, 4-(1-methyl-4-piperidyline)-4H-benzo(4,5)-cyclohepta-(1,2-b) thiophene-10-one], the Sedated animals (mice; oral 25 mg/kg) was 5/10, the Sedated animals (mice; oral 50 mg/kg) was 8/10 and the Sedated animals (mice; oral 100 mg/kg) was 10/10. For the same compound, the LD50 ([3]; intravenous) was 5 to 10 mg/kg and the LD50 ([3]; oral) was under 300 mg/kg.

In the case of `CN(C)CCOC(c1ccccc1)c1ccccc1` [DIPHENHYDRAMINE], the Sedated animals (mice; oral 50 mg/kg) is reported as 5/10 and the Sedated animals (mice; oral 100 mg/kg) is reported as 8/10.
